Laboratory results reported in publication PMC5978884, “Dissection of the antimicrobial and hemolytic activity of Cap18: Generation of Cap18 derivatives with enhanced specificity” (PLoS ONE, 2018).
Read-outs that look alike come from different tables or passages of the source. Where no end group is shown, it is not given here.

How the values were obtained:
[1] = tested on: Aeromonas salmonicida ATCC33658; experiment: microbe, parasite or virus in culture; format: cell-based; conditions: ATCC33658
Experimental: (§1) All strains were grown in Mueller-Hinton-II medium, except L. monocytogenes which was grown in BHI medium and L. lactis which was grown in MRS medium. Incubation took place aerobically at 37°C, except for Y. ruckeri and A. salmonicida, which were grown aerobically at RT (20 °C), and L. lactis grown aerobically at 30°C. All plates were incubated for 16–21 hours.
(§2) The minimum inhibitory concentrations (MICs) of the AMPs were measured in 96-well microtiter plates according the Clinical and Laboratory Standards Institute (CLSI, formerly National Committee for Clinical Laboratory Standards [NCCLS]). Briefly, liquid Mueller-Hinton-II medium containing increasing concentrations of AMPs is inoculated with a defined number of cells (approx. 10^5 CFUs/ml) in 96-well microtiter plates (polypropylene), whereas each plate also includes a positive growth control and a negative control (sterile control). The range of peptide concentrations analyzed was 0.125–64 μg/ml for the high purity peptides and 0.06–32 μg/ml for peptides of the variant library. After incubation, the MIC is determined by the lowest concentration showing no visible growth. All plates were incubated for 16–20 hours. The MIC of the reference antibiotics was determined by the use of Sensititre panels (Trek Diagnostic Systems Ltd, East Grinstead, UK).

[2] = tested on: Salmonella enterica serovar Typhimurium LT2; experiment: microbe, parasite or virus in culture; format: cell-based; conditions: LT2
Experimental: as §1, §2

[3] = tested on: Enterococcus faecalis ATCC29212; format: cell-based
Experimental: as §1, §2

[4] = tested on: Escherichia coli ATCC25922; format: cell-based
Experimental: as §1, §2

[5] = tested on: Lactococcus lactis IL1403; format: cell-based
Experimental: as §1, §2

[6] = tested on: Listeria monocytogenes N22-2; format: cell-based
Experimental: as §1, §2

[7] = tested on: Pseudomonas aeruginosa ATCC27853; format: cell-based
Experimental: as §1, §2

[8] = tested on: all the tested bacterial species including Gram-positive and Gram-negative bacteria
Experimental: as §2, with “The range of peptide concentrations analyzed was 0.125–64 μg/ml for the high purity peptides and 0.06–32 μg/ml for peptides of the variant library.” left out
To identify Cap18 variant peptides with changed species specificity, the antimicrobial screening data of Y. ruckeri, A. salmonicida, S. Typhimurium and L. lactis was compared.
In addition, three Cap18 derivatives harboring either a I13F, I13M or G26T substitution were ordered as positive controls. […] The antimicrobial activity of the highly pure peptides was determined by measuring the MIC value of each derivative against the four test strains Y. ruckeri, A. salmonicida, S.Typhimurium and L. lactis (Table 6). […] In addition to the additional screening strains, a wider range of relevant pathogens including Gram-positive and Gram-negative bacteria was analyzed for targeted antimicrobial activity.

[9] = tested on: Yersinia ruckeri 392/2003; experiment: microbe, parasite or virus in culture; format: cell-based
Experimental: as §1, §2

horse erythrocytes = tested on: horse erythrocytes; parameters: method as in PMID 26656394; conditions: cited from earlier work
[10] = previous study; cited from earlier work
Source text: It must be expected that AMPs during evolution have evolved towards a high general activity against multiple microorganisms. In this study, we address the issues of species specificity, hemolytic activity and antimicrobial activity of Cap18, a α-helical peptide of the cathelicidin family.

Row | Sequence | MIC A. salmonicida ATCC33658 [1] | MIC S. Typhimurium LT2 [2] | MIC E. faecalis ATCC29212 [3] | MIC E. coli ATCC25922 [4] | MIC L. lactis IL1403 [5] | MIC L. monocytogenes N22-2 [6] | MIC P. aeruginosa ATCC27853 [7] | MIC against all the tested bacterial species [8] | MIC A. salmonicida [1] | MIC S. Typhimurium [2] | MIC Y. ruckeri [9] | MIC Y. ruckeri 392/2003 ([9]; high purity peptides, Mueller-Hinton-II, RT (20 °C), 0.125–64 μg/ml, triplicates) | MIC L. lactis [5] | Hemolytic activity in vitro (horse erythrocytes) | Thermostability [10] | MIC Y. ruckeri 392/2003 [9]
1 | GLRKRLRKFRNKIKEKPKKIGQKIQGLLPKLAPRTDY [Peptide 18] | ≥64 µg/mL | ≥64 µg/mL | ≥64 µg/mL | ≥64 µg/mL | ≥64 µg/mL | ≥64 µg/mL | ≥64 µg/mL | ≥ 32 µg/mL | – | – | – | – | – | – | – | –
2 | GLRKRLRKFRNKIKEKLKKIGQKNQGLLPKLAPRTDY [Peptide 28] | – | 32 µg/mL | – | – | – | 32 µg/mL | – | ≥ 32 µg/mL | – | – | – | – | – | – | – | –
3 | GLRKRLRKFRNKIKEKLKKIGQKIQGLLPKLAPRTDY [Cap18] | 4 µg/mL | 4 to 8 µg/mL | 8 µg/mL | 4 to 8 µg/mL | 1 to 2 µg/mL | 4 µg/mL | 4 to 8 µg/mL | – | 2 µg/mL | 2 to 4 µg/mL | 2 µg/mL | 2 to 4 µg/mL | 2 to 4 µg/mL | no hemolytic activity | highly thermostable | –
4 | GLRKRLRKFRNKIKEKDKKIGQKIQGLLPKLAPRTDY [Peptide 16] | ≥64 µg/mL | – | ≥64 µg/mL | – | ≥64 µg/mL | ≥64 µg/mL | ≥64 µg/mL | ≥ 32 µg/mL | – | – | – | – | – | – | – | –
5 | GLRKRLRKFRNKDKEKLKKIGQKIQGLLPKLAPRTDY [Peptide 3] | ≥64 µg/mL | ≥64 µg/mL | ≥64 µg/mL | ≥64 µg/mL | ≥64 µg/mL | 32 to 64 µg/mL | ≥64 µg/mL | ≥ 32 µg/mL | – | – | – | – | – | – | – | ≥64 µg/mL
6 | GLRKRLRKFRNKIKEKLKKIGQKDQGLLPKLAPRTDY [Peptide 26] | ≥64 µg/mL | ≥64 µg/mL | ≥64 µg/mL | ≥64 µg/mL | ≥64 µg/mL | ≥64 µg/mL | ≥64 µg/mL | ≥ 32 µg/mL | – | – | – | – | – | – | – | ≥64 µg/mL
7 | GLRKRLRKFRNKIKEKLKKILQKIQGLLPKLAPRTDY [Peptide 24] | 16 µg/mL | 16 µg/mL | 16 µg/mL | 16 µg/mL | ≥64 µg/mL | 16 µg/mL | 16 µg/mL | – | 4 µg/mL | 8 µg/mL | 4 µg/mL | – | – | – | – | 16 µg/mL
8 | GLRKRLRKFRNKMKEKLKKIGQKIQGLLPKLAPRTDY [Peptide 6] | 4 µg/mL | 8 µg/mL | 8 to 16 µg/mL | 8 to 16 µg/mL | 2 µg/mL | 4 µg/mL | 8 to 16 µg/mL | – | – | – | – | – | – | – | – | 4 µg/mL
9 | GLRKRLRKFRNKIKEKLPKIGQKIQGLLPKLAPRTDY [Peptide 19] | 2 to 4 µg/mL | 4 µg/mL | ≥64 µg/mL | 8 to 16 µg/mL | 32 µg/mL | 32 to 64 µg/mL | 16 µg/mL | – | 2 µg/mL | 4 µg/mL | – | – | – | – | – | 32 µg/mL
